Test results taken from ChEMBL document CHEMBL1201862, “PubChem BioAssay data set” (2004).
Where “and” joins values, the source holds several entries; their conditions need not be identical. Identical values can stand only once.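 Compound exposure: 48 hours, 5 concentrations, 96-well plates. The concentration for 50% growth inhibition is given as GI50.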 Calls of active or inactive are those of the source. No stated cut-off is given here; in the data, active = GI50 up to about 1.1 µM and inactive = higher.

What was measured:
Test in all cases: NCI tumour cell line growth inhibition, 48 h
LOX IMVI = system: LOX IMVI
KM12 = system: KM12
SNB-75 = system: SNB-75
ACHN = system: ACHN
SF-295 = system: SF-295
IGROV-1 = system: IGROV-1
RXF 393 = system: RXF 393
786-0 = system: 786-0
RPMI-8226 = system: RPMI-8226
SF-268 = system: SF-268
SF-539 = system: SF-539
M14 = system: M14
OVCAR-4 = system: OVCAR-4
OVCAR-3 = system: OVCAR-3
TK-10 = system: TK-10
Malme-3M = system: Malme-3M
HT-29 = system: HT-29
NCI-H226 = system: NCI-H226
T47D = system: T47D

Measured: GI50

CCc1n[nH]c(=O)n1/N=C/c1c(O)ccc2ccccc12
inactive: LOX IMVI > 100 µM | KM12 > 100 µM | SNB-75 > 100 µM | ACHN > 100 µM | SF-295 > 100 µM | IGROV-1 > 100 µM | RXF 393 > 100 µM | 786-0 > 100 µM | RPMI-8226 > 100 µM | SF-268 > 100 µM | SF-539 > 100 µM | M14 > 100 µM | OVCAR-4 > 100 µM | OVCAR-3 > 100 µM | TK-10 > 100 µM

Cc1nc2c(Br)cc(Br)cc2c(=O)n1-c1ccccc1N
inactive: Malme-3M 28.4 µM | LOX IMVI 27.5 µM | KM12 51.5 µM | SNB-75 22.9 µM | ACHN 39.7 µM | SF-295 53 µM | IGROV-1 38.3 µM | HT-29 23.9 µM | 786-0 43.8 µM | SF-268 50.1 µM | SF-539 35.2 µM | M14 35.4 µM | NCI-H226 30.3 µM | OVCAR-4 > 100 µM | OVCAR-3 63.5 µM

COc1ccc2nc(NC(=O)C(=O)CC(=O)c3ccc([N+](=O)[O-])cc3)sc2c1
inactive: Malme-3M > 100 µM | KM12 > 100 µM | SNB-75 > 100 µM | ACHN > 100 µM | IGROV-1 > 100 µM | HT-29 > 100 µM | 786-0 > 100 µM | RPMI-8226 > 100 µM | SF-268 > 100 µM | SF-539 > 100 µM | M14 > 100 µM | NCI-H226 > 100 µM | OVCAR-4 > 100 µM | OVCAR-3 > 100 µM

CC[C@]1(O)C(=O)OCc2c1cc1n(c2=O)Cc2cc3c(N)cccc3nc2-1
inactive: Malme-3M > 100 µM | LOX IMVI > 100 µM | KM12 > 100 µM | SNB-75 20.5 µM | ACHN > 100 µM | SF-295 > 100 µM | IGROV-1 > 100 µM | HT-29 > 100 µM | RXF 393 > 100 µM | 786-0 > 100 µM | RPMI-8226 > 100 µM | SF-268 > 100 µM | SF-539 > 100 µM | M14 > 100 µM | NCI-H226 > 100 µM | OVCAR-4 > 100 µM | OVCAR-3 > 100 µM | TK-10 > 100 µM

O=c1[nH]c2[nH]c(-c3ccc(Br)cc3)cc2c2ccccc12
inactive: Malme-3M > 100 µM | LOX IMVI > 10 µM | KM12 > 100 µM | SNB-75 19.4 µM | ACHN 66.8 µM | SF-295 70 µM | IGROV-1 > 100 µM | HT-29 35.6 µM | RXF 393 24.7 µM | 786-0 35.6 µM | RPMI-8226 70.5 µM | SF-268 86.9 µM | SF-539 > 100 µM | NCI-H226 43.5 µM | OVCAR-4 24.7 µM | OVCAR-3 > 100 µM | TK-10 52 µM

CN(C)/N=N/c1ccccc1
inactive: Malme-3M > 100 µM | KM12 12.7 µM | SNB-75 > 100 µM | ACHN 25.9 µM | SF-295 1.35 µM | IGROV-1 34.3 µM | HT-29 > 100 µM | RXF 393 > 100 µM | 786-0 > 100 µM | RPMI-8226 > 100 µM | SF-268 > 100 µM | SF-539 > 100 µM | M14 > 100 µM | NCI-H226 > 100 µM | OVCAR-4 > 100 µM | OVCAR-3 > 100 µM | TK-10 > 100 µM

CC1CC(N)=Nc2ccccc2N1Cc1ccccc1 (centres undefined)
inactive: Malme-3M 2.22 µM | KM12 15 µM | SNB-75 6.89 µM | ACHN 15.2 µM | SF-295 14.5 µM | IGROV-1 7.6 µM | HT-29 14.4 µM | RXF 393 12 µM | 786-0 29.4 µM | RPMI-8226 5 µM | SF-268 13.6 µM | M14 15.6 µM | NCI-H226 15.7 µM | OVCAR-4 16.5 µM | OVCAR-3 12.4 µM | TK-10 15 µM

CC1N(O)C(c2ccccc2)C(c2ccccc2)=[N+]1[O-] (centres undefined)
inactive: Malme-3M > 100 µM | LOX IMVI > 100 µM | KM12 > 100 µM | SNB-75 84.3 µM | ACHN > 100 µM | SF-295 > 100 µM | IGROV-1 > 100 µM | HT-29 > 100 µM | RXF 393 > 100 µM | 786-0 > 100 µM | SF-539 > 100 µM | M14 > 100 µM | NCI-H226 > 100 µM | OVCAR-4 > 100 µM | OVCAR-3 > 100 µM | TK-10 > 100 µM

COc1cc(C2C(Cl)C(=O)N2c2ccc(Br)cc2)cc(I)c1O (centres undefined)
inactive: LOX IMVI 6.04 µM | KM12 37.3 µM | SNB-75 37.8 µM | ACHN 33.5 µM | SF-295 35.4 µM | IGROV-1 1.54 µM | HT-29 87.1 µM | 786-0 > 100 µM | RPMI-8226 33.1 µM | SF-268 89.1 µM | SF-539 > 100 µM | M14 33 µM | OVCAR-4 70.5 µM | T47D 23.8 µM | OVCAR-3 45.3 µM | TK-10 90.8 µM

CC(C)N1CC2CC(CN(C(=O)c3ccc(Cl)cc3)C2)C1
inactive: Malme-3M > 100 µM | LOX IMVI > 100 µM | KM12 > 100 µM | SNB-75 > 100 µM | ACHN > 100 µM | SF-295 > 100 µM | IGROV-1 > 100 µM | HT-29 > 100 µM | RXF 393 > 100 µM | 786-0 > 100 µM | RPMI-8226 > 100 µM | SF-268 > 100 µM | SF-539 > 100 µM | M14 > 100 µM | NCI-H226 > 100 µM | OVCAR-4 > 100 µM | OVCAR-3 > 100 µM | TK-10 > 100 µM

Cc1cc(C)c(C(=O)C(C)C(c2ccccc2)c2ccc(Cl)cc2)c(C)c1 (centres undefined)
inactive: KM12 > 100 µM and 96.4 µM | SNB-75 > 100 µM | ACHN > 100 µM and 91.8 µM | SF-295 > 100 µM | IGROV-1 > 100 µM | HT-29 34.4 µM and 43.5 µM | RXF 393 > 100 µM and 77.6 µM | 786-0 > 100 µM | SF-268 > 100 µM | SF-539 > 100 µM | M14 82.8 µM and 75.7 µM | NCI-H226 > 100 µM | OVCAR-4 49.4 µM and 67.6 µM | OVCAR-3 > 100 µM | TK-10 > 100 µM

O=C1/C(=C/c2cccc(F)c2)CCCc2ccccc21
inactive: Malme-3M 11.6 µM | LOX IMVI 16.5 µM | KM12 12.1 µM | SNB-75 17.3 µM | ACHN 19.1 µM | SF-295 16.1 µM | IGROV-1 12.2 µM | HT-29 13.2 µM | 786-0 17.2 µM | RPMI-8226 14.9 µM | SF-268 12.9 µM | SF-539 17.4 µM | M14 13.9 µM | NCI-H226 14.6 µM | OVCAR-4 16.7 µM | OVCAR-3 15.3 µM | TK-10 15.7 µM
